{"source": "patent US7419669B2", "about": "“Peptide epitopes common to antigens of the same multigene family” (Institut Gustave Roussy, priority 2002, dated 2008)", "key": {"[1]": {"test_system": "tumor cells", "conditions": "MICONNET et al., 2000; cited from earlier work"}, "[2]": {"test_system": "HHD transgenic mice", "assay": "Induction of specific CTLs in HHD transgenic mice by immunization with variant MAGE-A peptides; 51Cr cytotoxicity on peptide-loaded RMAS-HHD targets", "assay_type": "in vivo", "conditions": "HHD mice, 100 μg s.c. in Freund's incomplete adjuvant; RMAS-HHD targets, effector/target 40/1", "experimental": "The immunogenicity of the variant peptides p174Y1V10, p262L2 and p248V9 was evaluated by generation of CTLs on HHD transgenic mice (PASCOLO et al., J. Exp. Med., 185, 2043, 1997). These mice are β2m−/−, D^b−/− and express an HLA-A*0201 single chain made up of the α1 and α2 domains of HLA-A*0201 and the α3 and intracellular domains of D^b, linked via its N-terminal to the C-terminal of human β2-microglobulin, via a peptide of 15 amino acids.\nThe HHD mice are given a subcutaneous injection at the base of the tail with 100 μg of each variant peptide to be tested, emulsified in Freund's incomplete adjuvant, in the presence of 140 μg of a T-helper epitope derived from the HBV “core” antigen (128-140, sequence […]).\nAfter 11 days, spleen cells taken from the mice (5×10^7 cells in 10 ml) are stimulated in vitro with the test peptide (10 μM). On the 6th day of culture, the populations which respond are tested in order to determine a specific cytotoxicity. The cells which respond are restimulated in vitro at one-week intervals with 2×10^7 irradiated (3000 rads) HHD spleen cells and 1 to 0.1 μM of peptide in the presence of 50 IU/ml of recombinant IL2 (Proleukin, Chiron Corp).\nCytotoxicity assays are carried out 6 days after the final stimulation.\nRMAS-HHD cells are used as targets to study the cytotoxicity. The cells are obtained by transfection of murine RMAS cells with the HHD construct as described by PASCOLO et al. (J. Exp. Med., 185, 2043, 1997).\nThese target cells are labeled with 100 μCi of ^51Cr for 90 minutes, and then washed three times and plated out in round-bottomed 96-well plates (3×10^3 cells/well in 100 μl of RPMI 1640+3% of fetal calf serum). They are loaded with various concentrations of test peptide (variant, native peptide, or irrelevant control peptide), at 37° C. for 90 minutes.\nNext, 100 μl of the effector cells (effector cell/target cell ratio=40/1) are added to the wells and the plates are incubated at 37° C. for 4 hours. After incubation, 100 μl of supernatant are collected and the radioactivity is measured in a γ-counter.\nThe percentage of specific lysis is calculated by means of the formula: [(experimental ^51Cr release−spontaneous ^51Cr release)/(maximum ^51Cr release−spontaneous ^51Cr release)]×100. In all the experiments, the spontaneous release is less than 20% of the maximum release induced with 3N HCl."}, "[3]": {"test_system": "HLA-A*0201 human tumor cells expressing MAGE-A antigens (M44, M113, OBR)", "assay": "Stimulation of CTL248 line with HLA-A*0201 human tumor cells expressing MAGE-A antigens, TNF-α secretion", "assay_type": "cell-based", "experimental": "The following HLA-A*0201 tumor lines were used: • lines expressing at least one MAGE-A antigen: M44 and M113 (melanoma); OBR (bladder cancer); • lines not expressing MAGE-A antigens: MCF-7 (breast cancer) and Caco-2 (colon cancer).\nThe CTL248 line was stimulated with each of the tumor lines mentioned above.\nThe stimulation is evaluated by detecting the secretion of TNF-α as described above.\nIn order to confirm that the tumor cell recognition is indeed HLA-A*0201-restricted, the CTL248 cells were stimulated with M44 cells preincubated for one hour with an anti-HLA-A*0201 monoclonal antibody (BB7.2) or with an irrelevant antibody (anti-CD19), and the production of TNFα was measured as described above."}, "[4]": {"test_system": "CD8+ cells from normal donors", "assay": "Induction of specific human CTLs in vitro from PBMCs of normal donors with p248V9, intracellular IFNγ production", "assay_type": "cell-based", "experimental": "The ability of p248V9 to induce CTLs in vitro using peripheral blood mononuclear cells (PBMCs) from normal donors was tested as follows.\nThe PBMCs are obtained, from blood samples taken by leukocytapheresis on normal donors, after centrifugation at 2000 rpm for 20 min on a Ficoll/Hypaque (Amersham) gradient. After 3 washes in 0.9% NaCl, they are resuspended in complete medium (RPMI 1640 supplemented with 10% of heat-inactivated human AB serum, 40 μg/ml of gentamicin (Panpharma) and […] of L-glutamine (Gibco)), and incubated at 37° C. for 2 hours. After incubation, the non-adherent cells are removed. The adherent cells are differentiated into dendritic cells by culturing in a Teflon bag in a proportion of 3×10^6 cells/ml in complete medium supplemented with 500 IU/ml of GM-CSF (R & D Systems) and 500 IU/ml of IL-4 (R & D Systems). On the seventh day, maturing agents (100 ng/ml of polyI:C and 2 μg/ml of anti-CD40 antibody) are added to the culture. After 24 hours, the mature dendritic cells are loaded with the peptide p248V9 by incubation for 2 hours with 10 μM of peptide in the presence of 5 μg/ml of β2-microglobulin, and then irradiated at 3500 rads; they are then washed in order to remove the free peptide. CD8+ cells are isolated from the non-adherent cells by means of microbeads coupled to an anti-CD8 antibody (Miltenyi Biotec).\n2×10^5 CD8+ cells are stimulated with 2×10^4 dendritic cells loaded with the peptide, in complete medium supplemented with 1000 IU/ml of IL-6 and 5 IU/ml of IL-12 in a final volume of 100 μl/well in a 96-well plate. From the seventh day, the cultures are stimulated in vitro each week with the dendritic cells loaded with the peptide, in the presence of 20 IU/ml of IL-2 and 10 ng/ml of IL-7. After the third restimulation, the CD8+ cells are collected and stimulated with EBV-transformed HLA-A*0201 allogenic B cells, in a 1/2 ratio, in the presence of 10 μM of peptide, for 16 hours.\nThe IFNγ-producing CD8+ cells are purified using a commercial kit (IFNγ secretion assay-cell enrichment and detection kit, Miltenyi Biotech). The cells thus purified are cultured for one week in complete medium supplemented with 20 IU/ml of IL-2 and 10 ng/ml of IL-7.\nThe response of these CD8+ cells to T2 cells loaded with one of the peptides p248V9, p248G9 or p248D9, or with a irrelevant peptide (HIVgag76), or to HLA-A*0201+MAGE-A+ tumor cells (M44 and M113) or HLA-A*0201+MAGE-A^− tumor cells (Caco-2), is evaluated by assaying the intracellular IFNγ production.\nThe CD8+ cells are incubated with the cells of the tumor line tested, in the presence of 20 μg/ml of Brefeldine-A (Sigma). […]\nThe cells are then analyzed by flow cytometry (FACSCalibur™ (Becton Dickinson) and CellQuest™ software)."}, "[5]": {"test_system": "COS-7 cells cotransfected with HHD construct and MAGE-A cDNA", "assay": "Stimulation of CTL248 line (induced with p248V9) with transfected COS-7 cells expressing MAGE-A antigens, TNF-α secretion", "assay_type": "cell-based, monkey", "experimental": "A CTL line called CTL248 was established from the spleen cells of an HDD mouse immunized with the peptide p248V9, by repeated stimulation in vitro with decreasing concentrations of p248G9 (10 μM-1 μM). This line is maintained in culture in the presence of 1 μM of the peptide p248G9.\nThe cells of the CTL248 line are stimulated, for each of the MAGE-A1, -A2, -A3, -A4, -A6, -A10 and -A12 antigens, with monkey cos-7 cells cotransfected with the HAD construct (PASCOLO et al., mentioned above) and a plasmid containing the cDNA for said antigen. By way of negative controls, COS-7 cells transfected either with the HHD construct alone or with the cDNA for the MAGE-A antigen concerned are used. The stimulation of the CTLs is evaluated by measuring their secretion of TNF-α. […]\nAfter incubation for 6 hours, the supernatant is removed and brought into contact with WEHI164 clone 13 mouse fibrosarcoma cells (3×10^4 per well), which are characterized by a high sensitivity to TNF-α-induced apoptosis. In order to quantify the amount of TNF in the culture supernatants, a standard range of TNF-α (concentrations of 0 to 10^4 pg/ml) is used in parallel. After incubation for 16 hours at 37° C., the viability of the WEHI-164 clone 13 cells is determined by means of an MTT colorimetric assay (SIGMA) (ESPEVIK and NISSEN MEYER, J. Immunol. Methods, 95, 99, 1986)."}, "[6]": {"molecular_target": "HLA-B*3701 allele of MHC-I (Homo sapiens, UniProt P01889, A329T/A93T/A95T/C349S/D138N/D201E/D98Y/E176V/E187T/E204Q/E69T/G107R/H137Y/K202T/L119I/N104T/N87E/Q94N/R106L/R155S/R180D/S101D/S121R/V306I/Y123S/Y140F/Y33H/Y91S)", "conditions": "TANZARELLA et al., 1999; cited from earlier work"}}, "note": "Entries after “also recorded” stand apart in the source; their conditions may differ. Where no end group is shown, it is not given here.", "data": [{"sequence": "FLWGPRALV", "values": [{"measurement": "processing of the epitope by tumor cells", "setting": "[1]", "result": "not efficiently processed by tumor cells"}]}, {"sequence": "YLEYRQVPV (not fully specified) [p248V9]", "values": [{"measurement": "CTL response generated by immunization with the variant peptide", "setting": "[2]", "result": "induces a CTL response directed not only against this variant but also against the two native peptides p248G9 and p248D9; also recorded: generates CTLs which kill the RMAS-HHD targets loaded with the variant peptide, or with the corresponding native peptide"}, {"measurement": "recognition of naturally processed MAGE-A epitope by CTLs induced with the peptide (HLA-A*0201 human tumor lines)", "setting": "[3]", "result": "recognize a naturally processed epitope common to the MAGE-A1, -A2, -A3, -A4, -A6, -A10 and -A12 antigens"}, {"measurement": "induction of human CTLs by the peptide", "setting": "[4]; PBMCs from normal donors, peptide-loaded dendritic cells, intracellular IFNγ", "result": "induces human CTLs capable of also recognizing the corresponding native peptides, and capable of recognizing tumor cells expressing varied MAGE-A antigens"}, {"measurement": "response of p248V9-induced human CD8+ cells to T2 cells loaded with the peptide", "setting": "[4]; intracellular IFNγ production", "result": "a response of the CD8+ cells"}, {"measurement": "recognition of naturally processed MAGE-A epitope by CTLs induced with the peptide (COS-7 transfectants)", "setting": "[5]", "result": "recognize a naturally processed epitope common to the MAGE-A1, -A2, -A3, -A4, -A6, -A10 and -A12 antigens"}]}, {"sequence": "REPVTKAEML (listed as Homo sapiens)", "values": [{"measurement": "binding to HLA-B*3701", "setting": "[6]", "result": "binds to the HLA-B*3701 allele of MHC-I"}]}]}
